Data: patent US20180344856A1, “COMPOSITIONS AND/OR ARTICLES WITH IMPROVED SOLUBILITY OF A SOLID ACTIVE” (The Procter & Gamble Company, priority 2012, published 2018)

Experiments:
[1] = Solvency of solvents for hexylresorcinol, visual check for crystals after storage; assay type: physicochemical; settings: solute hexylresorcinol, 33.5% test solution, approximately 1:2 solute to solvent ratio, soluble = no visible crystals
Procedure: (§1) In the testing provided below, “soluble” (or “solubilize”), in relation to the solubility of a solid solute being tested, means that no visible crystals may be seen after a prescribed storage period at a storage condition. The storage period can vary. Suitable storage periods include about 24 hours, about 1 week, and about 30 days. Suitable storage conditions include ambient conditions or cold storage at 5° C. (approximately 1 atm). In certain embodiments, solubility may be determined after a 24 hour storage period at ambient conditions. In other embodiments, solubility may be determined after 20 days in cold storage. Other testing parameters may include storage for prolonged time periods (e.g., 30 day, 50 days, 60 days, 90 days) and at variable temperatures (e.g., 5° C., 50° C.).
(§2) The solvency of an isosorbide diester within the scope of the present invention was tested against two conventional, industry standard solvents. […] A test solution of 33.5% hexylresorcinol is prepared with heating to 70° C. Upon reaching 70° C., the examples may be mixed for about 10 minutes. Place mixtures in a covered vial and cool to the storage temperature. Solubility is evaluated for samples stored 24 hours at ambient conditions. Solubility is also evaluated for samples stored for 7 day at 5° C. followed by equilibration to ambient conditions.

[2] = Solvency of solvents for tetrahydrocurcuminoids (THC), visual check for crystals after storage; settings: solute tetrahydrocurcuminoids (THC), 3% test solution, approximately 1:32 solute to solvent ratio, soluble = no visible crystals
[3] = Solvency of solvents for (S)-Equol, visual check for crystals after storage; assay type: physicochemical; settings: solute (S)-Equol, 6% test solution, approximately 1:16 solute to solvent ratio, soluble = no visible crystals
Procedure: as §1
as §2, with “solution was” for “solution”, “6% Equol” for “33.5% hexylresorcinol”

[4] = then equilibration to ambient conditions

CCCCCCCCCCCC(=O)N(C)CC(=O)OC(C)C [Isopropyl lauroyl sarcosinate, isopropyl lauroyl sarcosinate]
Soluble: Solubility, 24 hour rest at Ambient Conditions ([1]; heated to 70° C.) | Solubility, 7 day storage at 5° C. [1, 4] | Solubility, 24 hour rest at Ambient Conditions ([2]; heated to 70° C.) | Solubility, 7 day storage at 5° C. [2, 4] | Solubility, 24 hour rest at Ambient Conditions ([3]; heated to 70° C.) | Solubility, 7 day storage at 5° C. [3, 4]
